Among the data in US8299093B2, “Small molecule inhibitors of retroviral assembly and maturation” (New York Blood Center, Inc., priority 2008, dated 2012) are CC50 and IC50 values, retold here.

A short description of data set [1]: XTT cytotoxicity assay in MT-2 cells. The note with it: human, cell type not given. Format: cell-based. How it is done: Briefly, for MT-2 cells, 100 μL of small molecule at graded concentrations was added to an equal volume of cells (5×10^4 cells/ml) in 96-well plates followed by incubation at 37° C. for 4 days, which ran parallel to the neutralization assay in MT-2 (except medium was added instead of virus). In the case of PBMC, 2.5×10^5 cells/mL were used and the cytotoxicity was measured after 7 days. After addition of XTT (PolySciences, Inc.), the soluble intracellular formazan was quantitated calorimetrically at 450 nm 4 hours later with a reference at 620 nm. The CC50 values were calculated.

The next data set concerns HIV-1. In words: Inhibition of HIV-1 infectivity (p24 ELISA) in MT-2 cells, laboratory-adapted HIV-1 strains. Format: cell-based. The note with it: Human immunodeficiency virus 1, MT2, 96 h, MT-2 cells, p24 ELISA day 4. How it is done:
AZT was used as a positive control in the infectivity assays. In brief, 1×10^4 MT-2 cells (lymphocytes) were infected with HIV-1 at 100 TCID50 (50% tissue culture infective dose, 0.01 MOI [multiplicity of infection]) in 200 μL RPMI 1640 medium containing 10% FBS in the presence or absence of small molecules at graded concentrations overnight. The culture supernatants were then removed and fresh media containing freshly prepared test compounds were added. On the fourth day post-infection, 100 μL of culture supernatants were collected from each well, mixed with equal volume of 5% TRITON X-100® and tested for p24 antigen by ELISA®.
(An ELISA detects its analyte on a solid surface through an enzyme-linked reagent.)

The mark [2] stands for this setting: Table 2, formula II, read-out: CC50.
Setting [3] is: Table 1, formula I, read-out: CC50 (concentration that causes 50% cytotoxicity).
Setting [4] is: read-out: IC50 (concentration that provides 50% inhibition of HIV-1 p24), Table 1, formula I.

pIC50: −log10 of the molar value. Read-outs that look alike come from different tables or passages of the source.

Take `COc1ccc(NCC(O)Cn2c3ccccc3n3c(=O)cc(C)c(C#N)c23)cc1` (stereo not drawn) [NYAD-S53]: the CC50 in data set [1] (setting [2]) is above 10 µM. The molecule also gave a pIC50 in the data set on HIV-1 (Table 2, formula II) below 5.00.
As for `Cc1cc(C)c2[nH]c(=O)c(CN(CCO)C(=S)Nc3ccc(F)cc3)cc2c1` [NYAD-S4], in data set [1] (setting [3]), the CC50 is above 10 µM. Besides, the pIC50 in the data set on HIV-1 (setting [4]) was below 5.00.
Taken in the same sequence, the figures for `Cc1ccc2[nH]c(=O)c(CN(Cc3ccc(F)cc3)C(=O)c3ccco3)cc2c1` [NYAD-S96] were above 10 µM and below 5.00.
In the same order, the values of `Cc1ccc2[nH]c(=O)c(CN(Cc3ccco3)C(=O)c3ccc(Br)cc3)cc2c1` [NYAD-S36] are above 10 µM and above 5.00.
In the same order, the values of `Cc1ccccc1C(=O)N(Cc1ccco1)Cc1cc2cccc(C)c2[nH]c1=O` [NYAD-S31] are above 10 µM and below 5.00.
Take `CCOc1ccc(NCC(O)Cn2c3ccccc3n3c(=O)cc(C)c(C#N)c23)cc1` (stereo not drawn) [NYAD-S56]: the CC50 in data set [1] (setting [2]) was above 10 µM. In the data set on HIV-1 (Table 2, formula II), this molecule had a pIC50 below 5.00.
For `Cc1ccc2[nH]c(=O)c(CN(Cc3ccco3)C(=O)c3ccc(Cl)c(N4CCCCC4)c3)cc2c1` [NYAD-S6-8], the CC50 in data set [1] (setting [3]) is above 10 µM. The pIC50 in the data set with HIV-1 (setting [4]) was above 5.00.
Taken in the same sequence, the figures for `Cc1ccc2[nH]c(=O)c(CN(Cc3ccco3)C(=O)c3ccc(F)c(Cl)c3)cc2c1` [NYAD-S6-10] were above 10 µM and above 5.00.
In the same order, the values of `Cc1cc(C)c2[nH]c(=O)c(CN(Cc3ccco3)C(=O)c3ccc(F)cc3)cc2c1` [NYAD-S103] are above 10 µM and below 5.00.
As to `Cc1cc(C)c2[nH]c(=O)c(CN(Cc3ccco3)C(=O)c3ccco3)cc2c1` [NYAD-S101], in data set [1] (setting [3]), the CC50 was above 10 µM. Further, in the data set on HIV-1 (setting [4]), the pIC50 is below 5.00.
On to `Cc1cc(=O)n2c3ccccc3n(CC(O)Cn3ccnc3)c2c1C#N` (stereo not drawn) [NYAD-S15], for which the CC50 in data set [1] (setting [2]) was above 10 µM. The molecule further had a pIC50 in the data set with HIV-1 (Table 2, formula II) below 5.00.
On to `Cc1ccc(NCC(O)Cn2c3ccccc3n3c(=O)cc(C)c(C#N)c23)cc1Cl` (stereo not drawn) [NYAD-S57], for which the CC50 in data set [1] (setting [2]) was above 10 µM. Besides, the pIC50 in the data set on HIV-1 (Table 2, formula II) was below 5.00.
For the molecule `Cc1ccc2[nH]c(=O)c(CN(CC3CCCO3)C(=O)c3ccco3)cc2c1` (stereo not drawn) [NYAD-S42], the CC50 in data set [1] (setting [3]) was above 10 µM. The pIC50 in the data set on HIV-1 (setting [4]) is below 5.00.
Turning to `Cc1cccc2cc(CN(Cc3ccco3)C(=O)c3cccs3)c(O)nc12` [NYAD-S25], in data set [1] (setting [3]), the CC50 is above 10 µM. The pIC50 in the data set on HIV-1 (setting [4]) was below 5.00.
In the same order, the values of `Cc1cccc2cc(CN(Cc3ccco3)C(=O)c3ccc(F)cc3)c(=O)[nH]c12` [NYAD-S33] are above 10 µM and below 5.00.
Regarding `CCOc1ccc2[nH]c(=O)c(CN(Cc3ccco3)C(=O)c3cc(OC)c(OC)c(OC)c3)cc2c1` [NYAD-S109], the CC50 in data set [1] (setting [3]) was above 10 µM. Further, the pIC50 in the data set with HIV-1 (setting [4]) was below 5.00.
In the same order, the values of `Cc1cccc(C(=O)N(Cc2ccco2)Cc2cc3cc(C)ccc3[nH]c2=O)c1` [NYAD-S50] are above 10 µM and below 5.00.
With `Cc1ccc2cc(CN(Cc3ccccc3)C(=O)c3ccco3)c(=O)[nH]c2c1C` [NYAD-S48], the CC50 in data set [1] (setting [3]) is above 10 µM. In the data set with HIV-1 (setting [4]), the pIC50 is below 5.00.
Take `Cc1cccc2cc(CN(Cc3ccco3)C(=O)N3CCOCC3)c(=O)[nH]c12` [NYAD-S51]: in data set [1] (setting [3]), the CC50 was above 10 µM. Moreover, in the data set with HIV-1 (setting [4]), the pIC50 was below 5.00.
Taken in the same sequence, the figures for `COc1ccc2cc(CN(Cc3ccco3)C(=O)c3ccccc3)c(=O)[nH]c2c1` [NYAD-S105] were above 10 µM and below 5.00.
`COc1cccc(NCC(O)Cn2c3ccccc3n3c(=O)cc(C)c(C#N)c23)c1` (stereo not drawn) [NYAD-S65]: the CC50 in data set [1] (setting [2]) is above 10 µM. This molecule had a pIC50 with HIV-1 (Table 2, formula II) below 5.00.
Regarding `Cc1cc(C)c2[nH]c(=O)c(CN(Cc3ccco3)C(=O)c3ccc(Br)cc3)cc2c1` [NYAD-S82], in data set [1] (setting [3]), the CC50 was above 10 µM. For the same molecule, the pIC50 in the data set on HIV-1 (setting [4]) was below 5.00.
Turning to `Cc1ccc2[nH]c(=O)c(CN(Cc3ccco3)C(=O)c3ccc(F)c(F)c3)cc2c1` [NYAD-S6-21], the CC50 in data set [1] (setting [3]) was above 10 µM. Moreover, in the data set with HIV-1 (setting [4]), the pIC50 was above 5.00.
On to `Cc1cc(C)c2[nH]c(=O)c(CN(Cc3ccco3)C(=O)c3ccccc3)cc2c1` [NYAD-S80], for which the CC50 in data set [1] (setting [3]) is above 10 µM. The pIC50 in the data set on HIV-1 (setting [4]) is below 5.00.
